The values that follow come from patent US8916702B2 (priority 2012, dated 2014).

Where two headings read alike, the source gives them in different places.

The test system of this assay is HCV pseudoparticles (genotype 1a HCV E1 and E2 envelope, H77C isolate). In words: microbe, parasite or virus in culture. In kind it is cell-based. The note with it: Hepatitis C virus.
The mark [1] stands for this setting: Huh-7, 48 h, read-out: Activity (EC50 class), HCV pseudoparticles, Huh7 cells, luciferase 2 days after infection, average of duplicates.
The mark [2] stands for this setting: Huh-7, read-out: Activity (EC50 class), HCV pseudoparticles (genotype 1a, H77C) in Huh7 cells, EC50 expressed as class A/B.
Setting [3] is: Huh-7, 48 h, read-out: Activity (EC50 class), HCV pseudoparticle infection of Huh7 cells, luciferase 2 days after infection, EC50 expressed as class A/B.
Where [4] appears, read: Huh-7, 48 h, HCV pseudoparticles (genotype 1a, H77C) in Huh7 cells, average of duplicate, luciferase 2 days after infection.

As usually defined, the EC50 is the concentration at which the effect is half-maximal. On to `CCN(CC)CCOc1cccc(NC(=O)C(=O)NCC[C@H](NC(=O)c2ccc(Nc3nc(NC4(c5ccc(Cl)cc5)CC4)nc(OCC(F)(F)F)n3)cc2)C(=O)O)c1` [Compound 3658], for which the EC50 under setting [1] was in the range of 0.01 to 10 nM. With `COC(=O)[C@@H](CCNC(=O)C(=O)Nc1cccc(C(=O)Nc2ccccc2)c1)NC(=O)c1ccc(Nc2nc(NC3(c4ccc(Cl)cc4)CC3)nc(OCC(F)(F)F)n2)cc1` [Compound 3575], under setting [2], the EC50 was 0.01 to 10 nM. As for `O=C(NCC[C@H](NC(=O)c1ccc(Nc2nc(NC3(c4ccc(Cl)cc4)CC3)nc(OCC(F)(F)F)n2)cc1)C(=O)O)C(=O)NCC1(COc2ccccc2)CC1` [Compound 1431], the EC50 under setting [3] is 0.01 to 10 nM. Still for that read-out and setting: with `O=C(NCC[C@H](NC(=O)c1ccc(Nc2nc(NC3(c4ccc(Cl)cc4)CC3)nc(OCC(F)(F)F)n2)cc1)C(=O)O)C(=O)NCC1(CN2CCCN2)CC1` [Compound 1443] the figure was 0.01 to 10 nM. For the compound `CC(C)(CNC(=O)C(=O)NCc1ccccc1Cl)CNC(=O)c1ccc(Nc2nc(NC3(c4ccc(Cl)cc4)CC3)nc(OCC(F)(F)F)n2)cc1` [Compound 3003], the concentration giving a half-maximal response (EC50) under setting [2] was in the range of 0.01 to 10 nM. On to `COC(=O)[C@H](CCNC(=O)C(=O)NCC1(C2CCCCC2)CC1)NC(=O)c1ccc(Nc2nc(NC3(c4ccc(Cl)cc4)CC3)nc(OCC(F)(F)F)n2)cc1` [Compound 1203], for which, under setting [3], the EC50 lay within 0.01 to 10 nM.

With `COCC1(CNC(=O)C(=O)NCC[C@H](NC(=O)c2ccc(Nc3nc(NC4(c5ccc(Cl)cc5)CC4)nc(OCC(F)(F)F)n3)cc2)C(=O)OC)CC1` [Compound 1374], under setting [3], the EC50 fell in the range of 0.01 to 10 nM. Still for that read-out and setting: with `CC(C)(CNC(=O)C(=O)N1CCc2ccccc2C1)CNC(=O)c1ccc(Nc2nc(NC3(c4ccc(Cl)cc4)CC3)nc(OCC(F)(F)F)n2)cc1` [Compound 1545] the figure was 0.01 to 10 nM. With `COC(=O)[C@@H](CCNC(=O)C(=O)NCC1(c2ccccc2)CC1)NC(=O)c1ccc(Nc2nc(NC3(c4ccc(Cl)cc4)CC3)nc(OCC(F)(F)F)n2)cc1` [Compound 1378], the EC50 by setting is: (Huh-7, 48 h, HCV pseudoparticle infection of Huh7 cells, luciferase 2 days after infection, average of duplicates) 0.23 nM; under setting [3], 0.01 to 10 nM. As to `Cc1nc(-c2cccc(NC(=O)C(=O)NC[C@H](NC(=O)c3ccc(Nc4nc(NC5(c6ccc(Cl)cc6)CC5)nc(OCC(F)(F)F)n4)cc3)C(=O)O)c2)cs1` [Compound 3773], the EC50 under setting [1] lay within 0.01 to 10 nM. `COC(=O)[C@H](CCNC(=O)C(=O)NC1CC(C)(C)CC(C)(C)C1)NC(=O)c1ccc(Nc2nc(NC3(c4ccc(Cl)cc4)CC3)nc(OCC(F)(F)F)n2)cc1` [Compound 1071]: the EC50 under setting [3] is 0.01 to 10 nM. Consider `COC(=O)[C@H](CNC(=O)C(=O)Nc1cccc(CCC(N)=O)c1)NC(=O)c1ccc(Nc2nc(NC3(c4ccc(Cl)cc4)CC3)nc(OCC(F)(F)F)n2)cc1` [Compound 3738], for which, under setting [1], the EC50 fell in the range of 0.01 to 10 nM.

As to `O=C(NCC1CC1)C(=O)NCC1(CNC(=O)c2ccc(Nc3nc(NC4(c5ccc(Cl)cc5)CC4)nc(OCC(F)(F)F)n3)cc2)CC1` [Compound 1493], the EC50 under setting [3] is 0.01 to 10 nM. Same read-out and setting: with `CC(C)(CNC(=O)C(=O)Nc1ccccc1-c1ccccc1)CNC(=O)c1ccc(Nc2nc(NC3(c4ccc(Cl)cc4)CC3)nc(OCC(F)(F)F)n2)cc1` [Compound 1572] the figure was 0.01 to 10 nM. With `COC(=O)[C@H](CNC(=O)C(=O)Nc1ccc(C(=O)c2ccccc2)cc1)NC(=O)c1ccc(Nc2nc(NC3(c4ccc(Cl)cc4)CC3)nc(OCC(F)(F)F)n2)cc1` [Compound 3084], the EC50 under setting [4] was 3.58 nM and the EC50 under setting [2] fell in the range of 0.01 to 10 nM. Consider `Cc1ccccc1-c1ccc(NC(=O)C(=O)NCCC(NC(=O)c2ccc(Nc3nc(NC4(c5ccc(Cl)cc5)CC4)nc(OCC(F)(F)F)n3)cc2)C(=O)O)cc1` (stereo not drawn) [Compound 3525], for which the concentration giving a half-maximal response (EC50) under setting [2] lay in the range of 10 to 1000 nM. Turning to `Cc1ccc(-c2ccccc2NC(=O)C(=O)NCC(C)(C)CNC(=O)c2ccc(Nc3nc(NC4(c5ccc(Cl)cc5)CC4)nc(OCC(F)(F)F)n3)cc2)o1` [Compound 3240], under setting [2], the EC50 lay within 0.01 to 10 nM. Turning to `CC(C)(CNC(=O)C(=O)Nc1ccc(CCC(=O)O)cc1)CNC(=O)c1ccc(Nc2nc(NC3(c4ccc(Cl)cc4)CC3)nc(OCC(F)(F)F)n2)cc1` [Compound 1483], the EC50 under setting [3] was 0.01 to 10 nM. In the case of `NC(=O)C(=O)N[C@H](CCNC(=O)c1ccc(Nc2nc(NC3(c4ccc(Cl)cc4)CC3)nc(OCC(F)(F)F)n2)cc1)C(=O)O` [Compound 3491], the half-maximal effective concentration (EC50) under setting [2] lay in the range of 10 to 1000 nM. Still for that read-out and setting: with `NC(=O)C(=O)NCCCNC(=O)c1ccc(Nc2nc(NC3(c4ccc(Cl)cc4)CC3)nc(OCC(F)(F)F)n2)cc1` [Compound 3342] the figure was 0.01 to 10 nM; with `COC(=O)[C@H](CCNC(=O)C(=O)Nc1ccc(Cn2ccnc2)cc1)NC(=O)c1ccc(Nc2nc(NC3(c4ccc(Cl)cc4)CC3)nc(OCC(F)(F)F)n2)cc1` [Compound 3319], 0.01 to 10 nM; with `Cc1ccccc1-c1ccc(NC(=O)C(=O)NC[C@H](NC(=O)c2ccc(Nc3nc(NC4(c5ccc(Cl)cc5)CC4)nc(OCC(F)(F)F)n3)cc2)C(=O)O)cc1` [Compound 3272], 0.01 to 10 nM. As to `O=C(NCCNC(=O)c1ccc(Nc2nc(NC3(c4ccc(Cl)cc4)CC3)nc(OCC(F)(F)F)n2)cc1)C(=O)Nc1ccc(F)cc1` [Compound 3373], the EC50 under setting [4] was found to be 0.052 nM and the EC50 under setting [2] lay in the range of 0.01 to 10 nM. With `CN(CCCNC(=O)c1ccc(Nc2nc(NC3(c4ccc(Cl)cc4)CC3)nc(OCC(F)(F)F)n2)cc1)C(=O)C(N)=O` [Compound 3447], the EC50 under setting [2] lay within 0.01 to 10 nM. Consider `CC(C)(CNC(=O)C(=O)Nc1nc2c(Cl)cccc2s1)CNC(=O)c1ccc(Nc2nc(NC3(c4ccc(Cl)cc4)CC3)nc(OCC(F)(F)F)n2)cc1` [Compound 3815], for which the EC50 under setting [1] lay in the range of 0.01 to 10 nM. Take `CC(C)(CNC(=O)C(=O)NCc1ccc(-c2ccccc2)cc1)CNC(=O)c1ccc(Nc2nc(NC3(c4ccc(Cl)cc4)CC3)nc(OCC(F)(F)F)n2)cc1` [Compound 3017]: the EC50 under setting [2] lay within 0.01 to 10 nM.

In the case of `Cc1cc(NC(=O)C(=O)NCCNC(=O)c2ccc(Nc3nc(NC4(c5ccc(Cl)cc5)CC4)nc(OCC(F)(F)F)n3)cc2)no1` [Compound 3372], under setting [2], the EC50 was 0.01 to 10 nM.

Consider `COC(=O)[C@H](CCNC(=O)C(=O)NC(COCc1ccccc1)C1CC1)NC(=O)c1ccc(Nc2nc(NC3(c4ccc(Cl)cc4)CC3)nc(OCC(F)(F)F)n2)cc1` (stereo partly drawn) [Compound 1370], for which the half-maximal effective concentration (EC50) under setting [3] lay in the range of 0.01 to 10 nM. With `COC(=O)[C@H](CNC(=O)C(=O)Nc1ccc(-n2nc(C)cc2C)cc1)NC(=O)c1ccc(Nc2nc(NC3(c4ccc(Cl)cc4)CC3)nc(OCC(F)(F)F)n2)cc1` [Compound 3109], the EC50 under setting [2] was in the range of 0.01 to 10 nM.

Turning to `CNC(=O)C(=O)NCC[C@H](NC(=O)c1ccc(Nc2nc(NC3(c4ccc(Cl)cc4)CC3)nc(OCC(F)(F)F)n2)cc1)C(=O)O` [Compound 1014, (S)-2-(4-(4-(1-(4-chlorophenyl)cyclopropylamino)-6-(2,2,2-trifluoroethoxy)-1,3,5-triazin-2-ylamino)benzamido)-4-(2-(methylamino)-2-oxoacetamido)butanoic acid], under setting [3], the EC50 lay within 0.01 to 10 nM. As for `COc1ccc(CCNC(=O)C(=O)NCC[C@H](NC(=O)c2ccc(Nc3nc(NC4(c5ccc(Cl)cc5)CC4)nc(OCC(F)(F)F)n3)cc2)C(=O)O)cc1` [Compound 1331], under setting [3], the EC50 fell in the range of 0.01 to 10 nM.

`O=C(NC/C(=N/C(=O)c1ccc(Nc2nc(NC3(c4ccc(Cl)cc4)CC3)nc(OCC(F)(F)F)n2)cc1)C(=O)O)C(=O)Nc1ccc(N2CCN(Cc3ccccc3)CC2)cc1` [Compound 3169]: the EC50 under setting [2] was 0.01 to 10 nM.

For the compound `COc1ccc(CNC(=O)C(=O)NCC[C@H](NC(=O)c2ccc(Nc3nc(NC4(c5ccc(Cl)cc5)CC4)nc(OCC(F)(F)F)n3)cc2)C(=O)O)cc1` [Compound 1186], the EC50 under setting [3] is 0.01 to 10 nM.
